# Earlier results in patent US12458645B2, “Pediatric powder for oral suspension containing antiviral agent and method for the preparation thereof” (PHARMATHEN S.A., priority 2014, dated 2025).
# Where a name gives a salt, the structure may show the parent alone.
# What was measured:
# [1] = in words
# [2] = in words; remark: listed apart in the source
structure (smiles),measurement,setting,value
"Nc1nc2c(ncn2COCCO)c(=O)[nH]1 [acyclovir, Acyclovir]",oral bioavailability,[1],poor oral bioavailability
"CC(C)[C@H](N)C(=O)OCCOCn1cnc2c(=O)[nH]c(N)nc21 [Valaciclovir hydrochloride, L-valine, 2-[(2-amino-1,6-dihydro-6-oxo-9H-purin-9-yl)methoxy] ethyl ester, mono hydrochloride]",solubility in dichloromethane,[2],insoluble in dichloromethane
same,solubility in water,[2],soluble in water
